Assay results: ChEMBL document CHEMBL1201862, “PubChem BioAssay data set” (2004)
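Values below derive from 48-hour exposures of cells grown in 96-well plates, with endpoints linearly interpolated between the two concentrations bracketing the appropriate inhibition level. At the GI50, growth is halved.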 Calls of active or inactive are those of the source. Rule as the data show it: active = GI50 up to about 1.1 µM and inactive = higher.

Experiments:
Test in all cases: growth of human tumour cells (NCI), 48 h
786-0 = system: 786-0
T47D = system: T47D
SR = system: SR
ACHN = system: ACHN
DU-145 = system: DU-145
UO-31 = system: UO-31
UACC-257 = system: UACC-257
NCI/ADR-RES = system: NCI/ADR-RES
HT-29 = system: HT-29
RXF 393 = system: RXF 393
MDA-MB-435 = system: MDA-MB-435
OVCAR-4 = system: OVCAR-4
MDA-N = system: MDA-N
UACC-62 = system: UACC-62
A549 = system: A549
SK-MEL-2 = system: SK-MEL-2
OVCAR-3 = system: OVCAR-3
LOX IMVI = system: LOX IMVI
NCI-H522 = system: NCI-H522
SW-620 = system: SW-620

| SMILES | GI50 (786-0) | GI50 (T47D) | GI50 (SR) | GI50 (ACHN) | GI50 (DU-145) | GI50 (UO-31) | GI50 (UACC-257) | GI50 (NCI/ADR-RES) | GI50 (HT-29) | GI50 (RXF 393) | GI50 (MDA-MB-435) | GI50 (OVCAR-4) | GI50 (MDA-N) | GI50 (UACC-62) | GI50 (A549) | GI50 (SK-MEL-2) | GI50 (OVCAR-3) | GI50 (LOX IMVI) | GI50 (NCI-H522) | GI50 (SW-620) |
| --- | --- | --- | --- | --- | --- | --- | --- | --- | --- | --- | --- | --- | --- | --- | --- | --- | --- | --- | --- | --- |
| O=C(NCCCCCCCN1CCCCCCC1)C(C1CCCCC1)C1CCCCC1 | 4.74 µM (inactive) | 6.05 µM (inactive) | 2.34 µM (inactive) | 12 µM (inactive) | 13.8 µM (inactive) | 9.53 µM (inactive) | 2.09 µM (inactive) | 9.98 µM (inactive) | 2.82 µM (inactive) | 5.61 µM (inactive) | 7.67 µM (inactive) | 9.38 µM (inactive) | 7.93 µM (inactive) | 4.76 µM (inactive) | 11.7 µM (inactive) | 9.08 µM (inactive) | 6.07 µM (inactive) | 12 µM (inactive) | 14 µM (inactive) | 12.1 µM (inactive) |
| O=C1Nc2ccccc2/C1=N/NC(=S)N1CCCCC1 | 0.301 µM (active) | 5.94 µM (inactive) | 0.675 µM (active) | 0.397 µM (active) | 1.91 µM (inactive) | 0.592 µM (active) | – | 0.0415 µM (active) | 0.946 µM (active) | 0.0906 µM (active) | 1.36 µM (inactive) | 1.53 µM (inactive) | 1.48 µM (inactive) | 1.15 µM (inactive) | 0.428 µM (active) | 1.79 µM (inactive) | 0.145 µM (active) | 0.418 µM (active) | 2.79 µM (inactive) | 0.681 µM (active) |
| CC(C)(C)C1=CC(=C(c2ccc(-c3c4nc(c(-c5ccc(C(=C6C=C(C(C)(C)C)C(=O)C(C(C)(C)C)=C6)c6cc(C(C)(C)C)c(O)c(C(C)(C)C)c6)cc5)c5ccc([nH]5)c(-c5ccc(C(=C6C=C(C(C)(C)C)C(=O)C(C(C)(C)C)=C6)c6cc(C(C)(C)C)c(O)c(C(C)(C)C)c6)cc5)c5nc(c(-c6ccc(C(=C7C=C(C(C)(C)C)C(=O)C(C(C)(C)C)=C7)c7cc(C(C)(C)C)c(O)c(C(C)(C)C)c7)cc6)c6ccc3[nH]6)C=C5)C=C4)cc2)c2cc(C(C)(C)C)c(O)c(C(C)(C)C)c2)C=C(C(C)(C)C)C1=O | > 77.8 µM (inactive) | > 100 µM (inactive) | > 100 µM (inactive) | > 100 µM (inactive) | > 100 µM (inactive) | > 100 µM (inactive) | > 100 µM (inactive) | > 100 µM (inactive) | > 100 µM (inactive) | > 70.8 µM (inactive) | > 100 µM (inactive) | > 100 µM (inactive) | > 100 µM (inactive) | > 100 µM (inactive) | > 100 µM (inactive) | > 100 µM (inactive) | > 100 µM (inactive) | > 100 µM (inactive) | > 100 µM (inactive) | > 100 µM (inactive) |
| O=C(O)CCC(NC(=O)c1ccc(Oc2nc3ccccc3nc2-c2ccccc2)cc1)C(=O)O (centres undefined) | > 100 µM (inactive) | > 100 µM (inactive) | > 100 µM (inactive) | > 100 µM (inactive) | > 100 µM (inactive) | > 100 µM (inactive) | > 100 µM (inactive) | > 100 µM (inactive) | > 100 µM (inactive) | > 100 µM (inactive) | > 100 µM (inactive) | > 100 µM (inactive) | > 100 µM (inactive) | > 100 µM (inactive) | > 100 µM (inactive) | > 100 µM (inactive) | > 100 µM (inactive) | > 100 µM (inactive) | > 100 µM (inactive) | > 100 µM (inactive) |
| O=C1C[C@H](CCC(=O)OCc2ccccc2)NC(=O)C[C@H](CCC(=O)OCc2ccccc2)NC(=O)C[C@H](CCC(=O)OCc2ccccc2)N1 | 8.15 µM (inactive) | 44.3 µM (inactive) | > 100 µM (inactive) | 17.1 µM (inactive) | > 100 µM (inactive) | > 100 µM (inactive) | > 100 µM (inactive) | 82.4 µM (inactive) | > 100 µM (inactive) | 2.36 µM (inactive) | > 100 µM (inactive) | > 100 µM (inactive) | > 100 µM (inactive) | 88.9 µM (inactive) | > 100 µM (inactive) | 17.1 µM (inactive) | 97.1 µM (inactive) | > 100 µM (inactive) | > 100 µM (inactive) | > 100 µM (inactive) |
| NC(=O)NNCc1c(-c2ccccc2)no[n+]1[O-] | > 100 µM (inactive) | > 100 µM (inactive) | > 100 µM (inactive) | > 100 µM (inactive) | > 100 µM (inactive) | > 100 µM (inactive) | > 100 µM (inactive) | > 100 µM (inactive) | > 100 µM (inactive) | > 100 µM (inactive) | > 100 µM (inactive) | > 100 µM (inactive) | > 100 µM (inactive) | > 100 µM (inactive) | > 100 µM (inactive) | > 100 µM (inactive) | > 100 µM (inactive) | > 100 µM (inactive) | > 100 µM (inactive) | > 100 µM (inactive) |
| O=C(O)CCC1C(=O)C2CCN1CC2 (centres undefined) | > 100 µM (inactive) | > 100 µM (inactive) | > 100 µM (inactive) | > 100 µM (inactive) | > 100 µM (inactive) | > 100 µM (inactive) | > 100 µM (inactive) | > 100 µM (inactive) | > 100 µM (inactive) | > 100 µM (inactive) | > 100 µM (inactive) | > 100 µM (inactive) | > 100 µM (inactive) | > 100 µM (inactive) | > 100 µM (inactive) | > 100 µM (inactive) | > 100 µM (inactive) | > 100 µM (inactive) | > 100 µM (inactive) | > 100 µM (inactive) |
| C[C@H]1/C(=C/C(=O)OCCN(C)C)CC[C@H]2[C@H]1C(=O)C[C@H]1C(C)(C)[C@@H](O)CC[C@]21C | > 100 µM (inactive) | > 100 µM (inactive) | > 100 µM (inactive) | > 100 µM (inactive) | > 100 µM (inactive) | > 100 µM (inactive) | > 100 µM (inactive) | > 100 µM (inactive) | > 100 µM (inactive) | > 100 µM (inactive) | > 100 µM (inactive) | > 100 µM (inactive) | > 100 µM (inactive) | > 100 µM (inactive) | > 100 µM (inactive) | > 100 µM (inactive) | > 100 µM (inactive) | > 100 µM (inactive) | > 100 µM (inactive) | > 100 µM (inactive) |
| COc1ccc(-c2cc(=O)c3c(OC)c(OC)c(OC)c(OC)c3o2)c(OC)c1 | 32.3 µM (inactive) | 8.65 µM (inactive) | > 100 µM (inactive) | 24.8 µM (inactive) | 30.4 µM (inactive) | 20.6 µM (inactive) | 20 µM (inactive) | 16.8 µM (inactive) | 24.2 µM (inactive) | 36.7 µM (inactive) | 24.6 µM (inactive) | 28.3 µM (inactive) | 29.1 µM (inactive) | 16 µM (inactive) | 32.6 µM (inactive) | 19.1 µM (inactive) | 13.4 µM (inactive) | 17.2 µM (inactive) | 12.9 µM (inactive) | 31.1 µM (inactive) |
